A value given as a limit tells only on which side of the number the result lay.

The target of this assay is T1, human mAChR M4 (Homo sapiens, UniProt P08173).
T1 construct: expressed in transfected cells; host or cells: CHO-K1 (ATCC), stably co-expressing chimeric G protein Gqi5
T1 sequence (P08173 1-479): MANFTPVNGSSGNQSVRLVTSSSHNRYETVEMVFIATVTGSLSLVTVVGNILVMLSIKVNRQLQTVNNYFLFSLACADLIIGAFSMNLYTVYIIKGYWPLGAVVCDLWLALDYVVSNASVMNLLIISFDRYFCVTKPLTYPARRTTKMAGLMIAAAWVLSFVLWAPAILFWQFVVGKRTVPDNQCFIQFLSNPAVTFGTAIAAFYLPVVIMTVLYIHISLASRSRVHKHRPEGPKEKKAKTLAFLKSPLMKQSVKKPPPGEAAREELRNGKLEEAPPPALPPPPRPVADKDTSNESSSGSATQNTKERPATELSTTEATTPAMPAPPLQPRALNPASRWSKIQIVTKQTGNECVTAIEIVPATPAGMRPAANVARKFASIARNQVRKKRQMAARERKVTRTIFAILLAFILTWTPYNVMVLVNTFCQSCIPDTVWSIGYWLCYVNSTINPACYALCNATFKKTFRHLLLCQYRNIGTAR
Kind of assay: mAChR M4 cell-based functional assay (calcium mobilization, EC80 acetylcholine), human M4. Conditions: for Emin: human M4, % ACh maximum at 30 μM. The method, boiled down: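 CHO-K1 cells stably expressing human M4 with chimeric Gqi5; intracellular calcium rise read on FDSS as fluorescence static ratio at 1 Hz. Compounds in 10-point 1:3 dilution series; IC50 taken as concentration-dependent decrease of the EC80 acetylcholine response, four-parameter logistic fit.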

[1] abbreviates: Table 10, M4/Gqi5/CHO-K1 cells, decrease of EC80 acetylcholine response.
Where [2] appears, read: Table 9, M4/Gqi5/CHO-K1 cells, decrease of EC80 acetylcholine response.

For `Fc1ccc(Oc2ccc(N[C@H]3C[C@@H]4CN(CC5CCOCC5)C[C@@H]4C3)nn2)cc1` [Compound 225, (3aR,5s,6aS)-N-[6-(4-fluorophenoxy)pyridazin-3-yl]-2-(tetrahydropyran-4-ylmethyl)-3,3a,4,5,6,6a-hexahydro-1H-cyclopenta[c]pyrrol-5-amine], the “Human M4 Emin” value (Table 10) came to 5%. The half-maximal inhibitory concentration (IC50) under setting [1] is 0.0196 µM.
For `CCn1ccc(-c2ccc(N[C@H]3C[C@@H]4CN(CC5CCOCC5)C[C@@H]4C3)nn2)n1` [Compound 228, (3aR,5s,6aS)-N-[6-(1-ethylpyrazol-3-yl)pyridazin-3-yl]-2-(tetrahydropyran-4-ylmethyl)-3,3a,4,5,6,6a-hexahydro-1H-cyclopenta[c]pyrrol-5-amine], the “Human M4 Emin” value (Table 10) was found to be 28%. Besides, the concentration for half-maximal inhibition (IC50) under setting [1] worked out at 0.038 µM.
For `c1cc(-c2ccc(N[C@H]3C[C@@H]4CN(CC5CCOCC5)C[C@@H]4C3)nn2)c[nH]1` [Compound 229, (3aR,5s,6aS)-N-[6-(1H-pyrrol-3-yl)pyridazin-3-yl]-2-(tetrahydropyran-4-ylmethyl)-3,3a,4,5,6,6a-hexahydro-1H-cyclopenta[c]pyrrol-5-amine] the same measures were 11% and 0.102 µM.
For the compound `c1ccc(-c2cnc(N[C@H]3C[C@@H]4CN(CC5CCOCC5)C[C@@H]4C3)s2)cc1` [Compound 230, N-[(3aR,5s,6aS)-2-(tetrahydropyran-4-ylmethyl)-3,3a,4,5,6,6a-hexahydro-1H-cyclopenta[c]pyrrol-5-yl]-5-phenyl-thiazol-2-amine], the “Human M4 Emin” value (Table 10) was 41%. Further, the IC50 (Table 10, μM) is over 10 µM.
For `c1ccc(-c2cnc(N[C@H]3C[C@@H]4CN(Cc5ccncc5)C[C@@H]4C3)s2)cc1` [Compound 231, N-[(3aR,5s,6aS)-2-(4-pyridylmethyl)-3,3a,4,5,6,6a-hexahydro-1H-cyclopenta[c]pyrrol-5-yl]-5-phenyl-thiazol-2-amine] the same measures were 68% and over 10 µM.
Consider `Cc1nn(C)cc1-c1ccc(N[C@H]2C[C@@H]3CN(Cc4ccccc4F)C[C@@H]3C2)nn1` [compound 10], for which, under setting [2], the half-inhibitory concentration (IC50) was found to be 0.041 µM.
Turning to `Cc1cccnc1CN1C[C@H]2C[C@H](Nc3ccc(-c4cn(C)nc4C)nn3)C[C@H]2C1` [compound 11], under setting [2], the IC50 amounted to 0.0014 µM.
As to `Cc1nn(C)cc1-c1ccc(N[C@H]2C[C@@H]3CN(CCc4ccccc4)C[C@@H]3C2)nn1` [compound 12], under setting [2], the IC50 came out at 0.004 µM.
Same read-out and setting: as for `CCC(C)CN1C[C@H]2C[C@H](Nc3ccc(-c4cn(C)nc4C)nn3)C[C@H]2C1` (stereo partly drawn) [compound 13], the figure is 0.0007 µM; as for `CCCC(C)CN1C[C@H]2C[C@H](Nc3ccc(-c4cn(C)nc4C)nn3)C[C@H]2C1` (stereo partly drawn) [compound 14], 0.0048 µM; as for `Cc1nn(C)cc1-c1ccc(N[C@H]2C[C@@H]3CN(Cc4ccc5c(c4)OCO5)C[C@@H]3C2)nn1` [compound 15], 0.0006 µM.
For `Cc1cnn(C)c1-c1ccc(N[C@H]2C[C@@H]3CN(CC45CC6CC(CC(C6)C4)C5)C[C@@H]3C2)nn1` [compound 16], under setting [2], the IC50 came to 0.026 µM.
“(3aR,6aS)-2-(5-bicyclo[2.2.2]oct-2-enylmethyl)-5-[[6-(1,3-dimethylpyrazol-4-yl)pyridazin-3-yl]oxymethyl]-3,3a,4,5,6,6a-hexahydro-1H-cyclopenta[clpyrrole [Compound 94]”: under setting [2], the IC50 was determined as 0.0426 µM. Also, the Emin (Table 9) was found to be 3.67%.
As for “[(3aR,5r,6aS)-5-[6-(1,3-dimethylpyrazol-4-yl)pyridazin-3-yl]oxy-3,3a,4,5,6,6a-hexahydro-1H-cyclopenta[c]pyrrol-2-yl]-(1-adamantyl)methanone [Compound 60]”, under “Table 9”, the Emin is recorded as 58.2%. For the same compound, the IC50 (Table 9, μM) was over 10 µM.

The record behind these values is patent US12577234B2, “Antagonists of the muscarinic acetylcholine receptor M4” (Vanderbilt University, priority 2017, dated 2026).
